What is called IC50 is the midpoint of a concentration-inhibition curve. A lower IC50 goes with inhibition by little substance. One may read the inhibition in vivo as the percentage by which the read-out fell short of the control. Read a high inhibition in vivo as a strong effect.

Bounds are passed on as bounds.

The target of assay [1] is T1, Inhibitor of nuclear factor kappa-B kinase subunit alpha (Homo sapiens, UniProt O15111).
T1 sequence (O15111 whole entry): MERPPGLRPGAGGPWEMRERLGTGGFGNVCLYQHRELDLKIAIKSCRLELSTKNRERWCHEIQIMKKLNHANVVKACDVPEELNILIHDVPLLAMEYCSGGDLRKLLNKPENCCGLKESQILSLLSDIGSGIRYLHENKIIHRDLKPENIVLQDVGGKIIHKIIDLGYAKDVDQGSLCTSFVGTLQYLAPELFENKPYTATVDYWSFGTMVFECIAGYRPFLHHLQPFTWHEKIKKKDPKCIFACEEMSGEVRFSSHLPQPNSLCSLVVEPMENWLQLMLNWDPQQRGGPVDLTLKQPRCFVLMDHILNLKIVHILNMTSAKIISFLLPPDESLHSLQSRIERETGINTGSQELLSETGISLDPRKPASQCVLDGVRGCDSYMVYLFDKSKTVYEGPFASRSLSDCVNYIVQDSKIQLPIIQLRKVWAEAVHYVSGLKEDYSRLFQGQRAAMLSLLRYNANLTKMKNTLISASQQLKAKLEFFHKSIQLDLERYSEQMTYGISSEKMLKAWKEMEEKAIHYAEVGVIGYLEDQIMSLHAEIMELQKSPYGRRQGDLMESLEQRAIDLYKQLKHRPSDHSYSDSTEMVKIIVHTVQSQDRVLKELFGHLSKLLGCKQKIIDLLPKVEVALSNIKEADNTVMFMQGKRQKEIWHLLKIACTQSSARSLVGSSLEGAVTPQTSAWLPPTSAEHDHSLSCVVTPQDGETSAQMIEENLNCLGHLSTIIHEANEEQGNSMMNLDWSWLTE
In words: Inhibitory activity against IKK1.

Assay [2] has as its target T2, Inhibitor of nuclear factor kappa-B kinase subunit beta (Homo sapiens, UniProt O14920).
T2 sequence (O14920 whole entry): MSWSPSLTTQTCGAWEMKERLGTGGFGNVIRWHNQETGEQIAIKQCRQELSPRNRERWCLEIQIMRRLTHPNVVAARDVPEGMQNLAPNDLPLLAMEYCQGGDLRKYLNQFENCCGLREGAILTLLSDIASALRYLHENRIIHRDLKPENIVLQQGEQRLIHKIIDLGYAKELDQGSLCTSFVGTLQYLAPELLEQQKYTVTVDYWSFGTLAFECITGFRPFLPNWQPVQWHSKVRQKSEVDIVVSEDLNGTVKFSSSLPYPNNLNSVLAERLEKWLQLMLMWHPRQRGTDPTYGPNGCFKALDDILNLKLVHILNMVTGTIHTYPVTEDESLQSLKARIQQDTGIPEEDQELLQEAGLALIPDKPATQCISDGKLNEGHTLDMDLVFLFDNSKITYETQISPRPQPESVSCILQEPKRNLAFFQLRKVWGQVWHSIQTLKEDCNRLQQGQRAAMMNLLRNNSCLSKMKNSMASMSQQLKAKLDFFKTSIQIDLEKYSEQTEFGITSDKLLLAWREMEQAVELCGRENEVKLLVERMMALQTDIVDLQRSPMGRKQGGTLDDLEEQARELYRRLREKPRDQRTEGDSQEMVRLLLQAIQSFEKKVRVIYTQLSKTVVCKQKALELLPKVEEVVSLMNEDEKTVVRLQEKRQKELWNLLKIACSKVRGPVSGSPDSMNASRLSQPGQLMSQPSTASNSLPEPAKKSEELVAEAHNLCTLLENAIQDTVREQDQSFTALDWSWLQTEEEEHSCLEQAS
Nature of the assay: Inhibitory activity against IKK2.

Assay [3] addresses T3, Inhibitor of NF-kappa-B kinase (IKK) (Homo sapiens, UniProt O14920+O15111+Q9Y6K9). Nature of the assay: Inhibitory activity against IKK complex isolated from HeLa cells. It is filed as cell-based.
In assay [4] the target is T3, Inhibitor of NF-kappa-B kinase (IKK). Nature of the assay: Inhibition of TNF-alpha-stimulated IkappaBalpha degradation. It is filed as functional.
The target is the same in assay [5]. In words: Inhibition of TNF-alpha-stimulated expression of E-selectin in HUVEC cells. It is filed as functional, cell-based.
For assay [6] the target is unchanged. In words: Inhibition of TNF-alpha-stimulated expression of ICAM1 in HUVEC cells. It is filed as functional, cell-based.
Assay [7] shares this target. Nature of the assay: Inhibition of TNF-alpha-stimulated expression of VCAM1 in HUVEC cells. It is filed as functional, cell-based.
The nature of assay [8]: Inhibition of IFN-gamma-stimulated expression of beta-2 microglobulin. It is filed as functional.
A short description of assay [9]: Inhibition of IFN-gamma-stimulated expression of HLA-DR. It is filed as functional.
The subject of assay [10] is Rattus norvegicus. In words: Inhibition of LPS-induced TNFalpha release into plasma in rat at 30 mg/kg, sc. It is filed as functional. The conditions noted are these: route subcutaneous.
Assay [11] concerns Rattus norvegicus. In words: Inhibition of LPS-induced TNFalpha release into plasma in rat at 30 mg/kg, po. It is filed as functional.
In assay [12] the target is T3, Inhibitor of NF-kappa-B kinase (IKK). Nature of the assay: Inhibition of LPS-induced TNFalpha release from human PBMC. It is filed as functional.
The subject of the next assay is Mus musculus. Nature of the assay: Inhibition of thioglycollate-induced polymorphonuclear neutrophil release in mouse peritoneum at 10 mg/kg, sc. It is filed as functional. The conditions noted are these: route subcutaneous.

T3 sequence (Q9Y6K9 whole entry, one chain of several): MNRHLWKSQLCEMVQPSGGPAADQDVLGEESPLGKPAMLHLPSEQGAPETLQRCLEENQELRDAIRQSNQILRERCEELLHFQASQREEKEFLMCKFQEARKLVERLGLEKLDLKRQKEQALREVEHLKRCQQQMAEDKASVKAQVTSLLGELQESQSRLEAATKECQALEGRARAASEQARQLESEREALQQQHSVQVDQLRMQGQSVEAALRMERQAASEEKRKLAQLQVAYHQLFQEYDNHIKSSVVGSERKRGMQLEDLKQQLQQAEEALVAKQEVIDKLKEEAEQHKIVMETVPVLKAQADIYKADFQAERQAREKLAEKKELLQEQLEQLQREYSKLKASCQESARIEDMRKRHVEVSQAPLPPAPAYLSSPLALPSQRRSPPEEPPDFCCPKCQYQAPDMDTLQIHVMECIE

Consider `CC(C)(O)CCc1ccc(-c2ccnc(Nc3ccc(C(=O)N4CCC(N5CCCC5)CC4)cc3)n2)s1`, for which the IC50 is 0.7 µM in assay [1]; 0.05 µM in [2]; 0.05 µM in assay [3]; 2 µM in [4]; 0.45 µM in assay [5]; 0.5 µM in [6]. The IC50 in assay [7] stood at 0.6 µM; in [8] it was 5 µM; in [9], 3 µM.

As for `COc1cc(Nc2nccc(-c3cc4ccccc4s3)n2)ccc1C(=O)N1CCC(N2CCCC2)CC1`, the results for the IC50 in assay [1], in assay [2] and in assay [3] were 0.1 µM, 0.05 µM and 0.15 µM, respectively.

Turning to `NCCNC(=O)c1ccc(Nc2nccc(-c3cc4ccccc4s3)n2)cc1`, the IC50 was 3.7 µM in assay [1], 0.6 µM in assay [2] and 4.4 µM in assay [3].

`CC(C)CCNC(=O)c1ccc(Nc2nccc(-c3cc4ccccc4s3)n2)cc1` came in with an IC50 in assay [2] of over 100 µM.

`CN(C)CCNC(=O)c1ccc(Nc2nccc(-c3cc4ccccc4s3)n2)cc1`: the IC50 in assay [1] was 1.2 µM; in [2] it was 0.2 µM; in assay [3], 0.3 µM; in assay [4], 5 µM; in assay [5] it was 0.5 µM; in assay [6], 0.5 µM. Also, the IC50 is 0.5 µM in assay [7] and 2 µM in assay [8].

In the case of `CC(C)(N)CCc1ccc(-c2ccnc(Nc3ccc(C(=O)N4CCC(N5CCCC5)CC4)cc3)n2)s1`, the IC50 in [1] turned out to be 0.03 µM; in assay [2], 0.04 µM; in [3] it was 0.04 µM.

As to `O=C(c1ccc(Nc2nccc(-c3cc4ccccc4s3)n2)cc1)N1CCC(N2CCCC2)CC1`, the IC50 in [1] worked out at 0.2 µM; in assay [2] it was 0.04 µM; in assay [3], 0.07 µM; in assay [4], 1 µM; in assay [5], 0.5 µM; in assay [6], 0.3 µM. The IC50 was found to be 0.3 µM in assay [7], 2 µM in assay [8], 2 µM in assay [9] and 0.3 µM in [12]. Also, the inhibition in vivo at 30 mg/kg is 86% in the assay on Rattus norvegicus [10] and 75% in the assay with Rattus norvegicus [11]. The inhibition in vivo at 10 mg/kg with Mus musculus amounted to 50%.

Turning to `O=C(c1ccc(Nc2nccc(-c3ccc(CCCCO)s3)n2)cc1)N1CCC(N2CCCC2)CC1`, the IC50 stood at 0.5 µM in [1]; 0.025 µM in assay [2]; 0.04 µM in assay [3]; 2 µM in assay [4]; 0.2 µM in [5]; 0.2 µM in [6]. The IC50 is 0.2 µM in [7], 5 µM in assay [8] and 2.5 µM in assay [9].

With `O=C(O)c1ccc(Nc2nccc(-c3cc4ccccc4s3)n2)cc1`, the IC50 in [1] amounted to 5 µM; in assay [2], 0.6 µM; in assay [3] it was 18 µM; in assay [4], 100 µM; in assay [5] it was 50 µM; in [6], 50 µM. Further, the half-maximal inhibitory concentration (IC50) in assay [7] came out at 50 µM; in assay [8], 100 µM; in [9] it was 100 µM.

`O=C(NCCN1CCCC1)c1ccc(Nc2nccc(-c3cc4ccccc4s3)n2)cc1`: the IC50 is 1.2 µM in [1], 0.4 µM in assay [2] and 0.5 µM in assay [3].

As to `CC(C)(N)C#Cc1ccc(-c2ccnc(Nc3ccc(C(=O)N4CCC(N5CCCC5)CC4)cc3)n2)s1`, the figures for the IC50 in assay [1], in assay [2] and in assay [3] were 0.5 µM, 0.15 µM and 0.2 µM, respectively.

The compound `O=C(O)Cc1ccc(Nc2nccc(-c3cc4ccccc4s3)n2)cc1` had an IC50 in assay [2] of 2.2 µM.

For `CN(C)C1CCN(C(=O)c2ccc(Nc3nccc(-c4cc5ccccc5s4)n3)cc2)CC1`, the half-inhibitory concentration (IC50) in [1] turned out to be 0.15 µM; in assay [2] it was 0.04 µM; in assay [3] it was 0.08 µM; in assay [4], 2 µM; in assay [5] it was 0.3 µM; in [6] it was 0.4 µM. Further, the values for the concentration for half-maximal inhibition (IC50) in [7], in assay [8] and in assay [9] were 0.4 µM, 2 µM and 2 µM, respectively.

Consider `O=C(c1ccc(Nc2nccc(-c3cc4ccccc4s3)n2)cc1Cl)N1CCC(N2CCCC2)CC1`, for which the 50% inhibitory concentration (IC50) was determined as 0.4 µM in assay [1], 0.09 µM in [2] and 0.25 µM in [3].

For `O=C(O)c1cccc(Nc2nccc(-c3cc4ccccc4s3)n2)c1`, the IC50 in assay [2] is 1 µM.

Take `O=C(O)c1ccccc1Nc1nccc(-c2cc3ccccc3s2)n1`: the IC50 in assay [1], in assay [2] and in [3] was over 100 µM each time.

As to `COCCCc1ccc(-c2ccnc(Nc3ccc(C(=O)N4CCC(N5CCCC5)CC4)cc3)n2)s1`, the IC50 worked out at 1 µM in assay [1]; 0.1 µM in assay [2]; 0.1 µM in assay [3]; 1 µM in [4]; 0.4 µM in [5]; 0.6 µM in [6]. In addition, the IC50 in assay [7] amounted to 0.5 µM; in [8] it was 5 µM; in [9], 2 µM.

Regarding `CC(=O)NC(C)(C)CCc1ccc(-c2ccnc(Nc3ccc(C(=O)N4CCC(N5CCCC5)CC4)cc3)n2)s1`, the IC50 in [1] turned out to be 30 µM; in assay [2], 0.15 µM; in assay [3], 0.8 µM.

In the case of `O=C(c1ccc(Nc2nccc(-c3cc4ccccc4s3)n2)cc1)N1CCCC1`, the IC50 in assay [1] is 3.8 µM; in assay [2], 0.9 µM; in assay [3], 8.5 µM; in assay [4], 20 µM; in [5], 2 µM; in [6] it was 2 µM. In addition, the IC50 in [7] came out at 2 µM; in [8] it was 10 µM; in [9], 0.25 µM.

`CCC(N)(CC)CCc1ccc(-c2ccnc(Nc3ccc(C(=O)N4CCC(N5CCCC5)CC4)cc3)n2)s1`: the half-maximal inhibitory concentration (IC50) came out at 0.03 µM in assay [1], 0.06 µM in [2] and 0.03 µM in assay [3].
